According to article PMC8916643, “Molecular physiology of pumiliotoxin sequestration in a poison frog” (PLoS ONE, 2022):

Tests used:
mice = mice and insects; cited from earlier work
hERG = biological target: T1, hERG (Homo sapiens, UniProt Q12809); experiment: CiPA cell-based QPatch ion channel inhibition; details: maximum concentration of 30 uM
T1 construct: Eurofins Discovery Services (Eurofins Panlabs Inc) ran the assay
Procedure: (§1) Assays for human CYP activity (CYP phenotyping), CYP2D6 metabolite discovery (metID), ion channel inhibition (CiPA), and G-protein coupled receptor (GPCR) activity (gpcrMAX) were performed through Eurofins Discovery Services (Eurofins Panlabs Inc, St. Charles MO, USA). In the CYP phenotyping panel, human recombinant CYP1A2, CYP2B6, CYP2C8, CYP2C9, CYP2C19, CYP2D6, and CYP3A4 were included in the assay. A concentration of 1E-07 M of PTX 251D was tested, and the percent compound remaining was quantified at 0, 15, 30, 45, and 60 minutes using HPLC-MS/MS. As a positive control, a reference compound was used for each CYP tested (see S1 File for results). In the CYP2D6 metabolism assay, human recombinant CYP2D6 was incubated with an initial concentration of 10 μM and metabolites were quantified after 90 minutes using LC-MS/MS. Two replicates were used for the CYP phenotyping panel and one replicate was used for CYP2D6 metabolite assay. The CiPA assay was a cell-based QPatch on voltage-gated sodium channel NaV1.5 (peak and late/agonist), voltage-gated potassium channels Kv4.3/KChIP2, hERG, KCNQ1/minK, Kir2.1, and voltage-gated calcium channel Cav1.2. The concentrations of PTX 251D assayed were 3, 10, and 30 μM, and a reference compound for each channel was used (see S1 File for results and individual QPatch parameters). In the gpcrMAX assay a panel of 165 GPCRs was tested through the DiscoverX PathHunter beta-arrestin enzyme fragment complementation technology, and a concentration of 10 μM PTX 251D was tested for both agonist and antagonist activity along with a reference compound for each GPCR (see S1 File for results).

Kv4.3/KChIP2 = biological target: T2, Kv4.3/KChIP2 (Homo sapiens, UniProt Q9UK17); experiment: CiPA cell-based QPatch ion channel inhibition; details: maximum concentration of 30 uM
T2 construct: Eurofins Discovery Services (Eurofins Panlabs Inc) ran the assay
T2 sequence (Q9UK17 1-655): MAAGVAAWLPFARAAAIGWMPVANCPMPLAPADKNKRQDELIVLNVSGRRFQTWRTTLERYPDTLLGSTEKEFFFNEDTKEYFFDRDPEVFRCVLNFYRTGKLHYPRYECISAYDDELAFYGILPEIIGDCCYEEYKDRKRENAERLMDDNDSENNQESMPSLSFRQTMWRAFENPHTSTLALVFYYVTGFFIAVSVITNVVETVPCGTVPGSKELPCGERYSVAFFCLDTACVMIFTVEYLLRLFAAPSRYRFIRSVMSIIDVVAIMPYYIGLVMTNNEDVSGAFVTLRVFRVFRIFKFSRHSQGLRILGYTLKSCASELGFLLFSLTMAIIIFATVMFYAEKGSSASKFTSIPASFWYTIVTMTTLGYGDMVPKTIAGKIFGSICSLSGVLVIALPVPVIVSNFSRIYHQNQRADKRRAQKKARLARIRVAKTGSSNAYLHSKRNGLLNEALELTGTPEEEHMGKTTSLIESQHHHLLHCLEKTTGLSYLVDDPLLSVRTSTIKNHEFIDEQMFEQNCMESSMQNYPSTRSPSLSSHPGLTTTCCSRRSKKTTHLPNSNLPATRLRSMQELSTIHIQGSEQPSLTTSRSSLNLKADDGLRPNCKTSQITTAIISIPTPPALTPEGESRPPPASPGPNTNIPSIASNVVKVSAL
T2 sequence (Q9NS61 1-270 partner): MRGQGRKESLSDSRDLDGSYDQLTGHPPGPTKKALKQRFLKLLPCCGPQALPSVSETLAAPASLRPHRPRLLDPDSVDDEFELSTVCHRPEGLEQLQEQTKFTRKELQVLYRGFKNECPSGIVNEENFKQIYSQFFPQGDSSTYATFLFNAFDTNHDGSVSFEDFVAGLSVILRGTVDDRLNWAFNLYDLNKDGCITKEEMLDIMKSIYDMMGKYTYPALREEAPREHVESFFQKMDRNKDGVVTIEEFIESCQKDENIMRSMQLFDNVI
Procedure: as §1

Kir2.1 = biological target: T3, Kir2.1 (Homo sapiens, UniProt P63252); experiment: CiPA cell-based QPatch ion channel inhibition; details: maximum concentration of 30 uM
T3 construct: Eurofins Discovery Services (Eurofins Panlabs Inc) ran the assay
T3 sequence (P63252 1-427): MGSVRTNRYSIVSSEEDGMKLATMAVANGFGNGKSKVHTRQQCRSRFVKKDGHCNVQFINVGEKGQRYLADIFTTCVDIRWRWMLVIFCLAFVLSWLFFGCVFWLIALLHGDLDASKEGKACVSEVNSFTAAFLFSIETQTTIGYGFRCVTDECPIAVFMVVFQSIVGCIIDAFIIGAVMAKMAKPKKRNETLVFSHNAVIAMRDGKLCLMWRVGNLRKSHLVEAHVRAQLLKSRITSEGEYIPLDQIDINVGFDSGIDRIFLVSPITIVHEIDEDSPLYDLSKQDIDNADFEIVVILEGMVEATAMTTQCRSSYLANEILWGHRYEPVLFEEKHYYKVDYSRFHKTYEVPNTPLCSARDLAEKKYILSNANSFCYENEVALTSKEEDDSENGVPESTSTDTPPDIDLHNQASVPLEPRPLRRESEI
Procedure: as §1

[1] = biological target: T4, voltage-gated calcium channel Cav1.2 (Homo sapiens, UniProt Q13936); experiment: CiPA cell-based QPatch ion channel inhibition; details: maximum concentration of 30 uM
T4 construct: Eurofins Discovery Services (Eurofins Panlabs Inc) ran the assay
Procedure: as §1

[2] = biological target: T5, voltage-gated sodium channel NaV1.5 (Homo sapiens, UniProt Q14524); experiment: CiPA cell-based QPatch ion channel inhibition; details: maximum concentration of 30 uM
T5 construct: Eurofins Discovery Services (Eurofins Panlabs Inc) ran the assay
Procedure: as §1

T5 sequence (Q14524 whole entry): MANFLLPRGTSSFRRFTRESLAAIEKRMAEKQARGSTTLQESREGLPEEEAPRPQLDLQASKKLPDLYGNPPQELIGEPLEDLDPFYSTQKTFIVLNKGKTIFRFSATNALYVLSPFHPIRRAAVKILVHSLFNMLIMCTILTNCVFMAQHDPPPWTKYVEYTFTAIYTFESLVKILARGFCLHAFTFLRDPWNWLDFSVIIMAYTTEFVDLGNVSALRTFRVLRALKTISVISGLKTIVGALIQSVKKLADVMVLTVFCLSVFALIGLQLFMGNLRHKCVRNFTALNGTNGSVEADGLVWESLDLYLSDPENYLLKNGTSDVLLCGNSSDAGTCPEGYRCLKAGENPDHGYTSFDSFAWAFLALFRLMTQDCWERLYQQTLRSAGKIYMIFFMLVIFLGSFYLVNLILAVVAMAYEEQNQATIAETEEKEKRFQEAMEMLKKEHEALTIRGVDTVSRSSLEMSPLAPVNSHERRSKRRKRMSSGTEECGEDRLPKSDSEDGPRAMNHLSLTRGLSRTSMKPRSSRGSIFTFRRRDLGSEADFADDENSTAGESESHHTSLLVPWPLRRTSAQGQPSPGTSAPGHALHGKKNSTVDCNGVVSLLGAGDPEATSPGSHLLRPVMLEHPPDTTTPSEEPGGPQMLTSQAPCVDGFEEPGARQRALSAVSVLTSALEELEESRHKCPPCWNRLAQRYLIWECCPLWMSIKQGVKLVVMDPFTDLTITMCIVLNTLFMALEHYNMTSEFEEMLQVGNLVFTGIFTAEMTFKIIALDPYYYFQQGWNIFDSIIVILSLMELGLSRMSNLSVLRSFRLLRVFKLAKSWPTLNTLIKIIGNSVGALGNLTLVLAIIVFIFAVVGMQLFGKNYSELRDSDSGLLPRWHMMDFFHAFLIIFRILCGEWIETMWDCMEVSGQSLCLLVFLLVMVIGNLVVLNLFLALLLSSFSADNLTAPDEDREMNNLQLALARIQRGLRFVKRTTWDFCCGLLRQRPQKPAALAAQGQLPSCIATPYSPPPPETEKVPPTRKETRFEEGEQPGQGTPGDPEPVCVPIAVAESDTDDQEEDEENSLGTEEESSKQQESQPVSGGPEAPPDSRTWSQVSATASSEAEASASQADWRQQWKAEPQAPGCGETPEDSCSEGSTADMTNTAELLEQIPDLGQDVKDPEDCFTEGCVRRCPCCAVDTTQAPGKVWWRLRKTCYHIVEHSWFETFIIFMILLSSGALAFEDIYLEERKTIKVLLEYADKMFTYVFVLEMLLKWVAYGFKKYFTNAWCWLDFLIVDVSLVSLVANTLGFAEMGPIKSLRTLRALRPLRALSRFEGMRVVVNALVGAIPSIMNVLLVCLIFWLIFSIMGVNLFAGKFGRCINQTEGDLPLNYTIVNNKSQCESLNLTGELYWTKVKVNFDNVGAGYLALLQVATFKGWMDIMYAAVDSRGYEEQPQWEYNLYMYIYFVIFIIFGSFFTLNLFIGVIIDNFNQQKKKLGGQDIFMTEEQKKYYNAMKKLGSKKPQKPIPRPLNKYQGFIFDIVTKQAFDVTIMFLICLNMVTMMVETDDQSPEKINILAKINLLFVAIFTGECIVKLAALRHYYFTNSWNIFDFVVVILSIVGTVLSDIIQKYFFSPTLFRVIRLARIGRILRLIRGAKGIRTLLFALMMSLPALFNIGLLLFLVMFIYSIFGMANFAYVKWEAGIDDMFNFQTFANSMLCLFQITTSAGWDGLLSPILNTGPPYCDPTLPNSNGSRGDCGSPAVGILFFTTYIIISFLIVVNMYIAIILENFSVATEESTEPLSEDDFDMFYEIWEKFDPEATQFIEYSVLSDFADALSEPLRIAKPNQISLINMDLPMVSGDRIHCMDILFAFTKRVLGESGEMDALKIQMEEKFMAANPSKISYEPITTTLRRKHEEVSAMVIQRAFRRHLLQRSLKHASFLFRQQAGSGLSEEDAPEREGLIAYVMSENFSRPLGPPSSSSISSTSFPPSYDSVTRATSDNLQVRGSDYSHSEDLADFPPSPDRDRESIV
T1 sequence (Q12809 whole entry): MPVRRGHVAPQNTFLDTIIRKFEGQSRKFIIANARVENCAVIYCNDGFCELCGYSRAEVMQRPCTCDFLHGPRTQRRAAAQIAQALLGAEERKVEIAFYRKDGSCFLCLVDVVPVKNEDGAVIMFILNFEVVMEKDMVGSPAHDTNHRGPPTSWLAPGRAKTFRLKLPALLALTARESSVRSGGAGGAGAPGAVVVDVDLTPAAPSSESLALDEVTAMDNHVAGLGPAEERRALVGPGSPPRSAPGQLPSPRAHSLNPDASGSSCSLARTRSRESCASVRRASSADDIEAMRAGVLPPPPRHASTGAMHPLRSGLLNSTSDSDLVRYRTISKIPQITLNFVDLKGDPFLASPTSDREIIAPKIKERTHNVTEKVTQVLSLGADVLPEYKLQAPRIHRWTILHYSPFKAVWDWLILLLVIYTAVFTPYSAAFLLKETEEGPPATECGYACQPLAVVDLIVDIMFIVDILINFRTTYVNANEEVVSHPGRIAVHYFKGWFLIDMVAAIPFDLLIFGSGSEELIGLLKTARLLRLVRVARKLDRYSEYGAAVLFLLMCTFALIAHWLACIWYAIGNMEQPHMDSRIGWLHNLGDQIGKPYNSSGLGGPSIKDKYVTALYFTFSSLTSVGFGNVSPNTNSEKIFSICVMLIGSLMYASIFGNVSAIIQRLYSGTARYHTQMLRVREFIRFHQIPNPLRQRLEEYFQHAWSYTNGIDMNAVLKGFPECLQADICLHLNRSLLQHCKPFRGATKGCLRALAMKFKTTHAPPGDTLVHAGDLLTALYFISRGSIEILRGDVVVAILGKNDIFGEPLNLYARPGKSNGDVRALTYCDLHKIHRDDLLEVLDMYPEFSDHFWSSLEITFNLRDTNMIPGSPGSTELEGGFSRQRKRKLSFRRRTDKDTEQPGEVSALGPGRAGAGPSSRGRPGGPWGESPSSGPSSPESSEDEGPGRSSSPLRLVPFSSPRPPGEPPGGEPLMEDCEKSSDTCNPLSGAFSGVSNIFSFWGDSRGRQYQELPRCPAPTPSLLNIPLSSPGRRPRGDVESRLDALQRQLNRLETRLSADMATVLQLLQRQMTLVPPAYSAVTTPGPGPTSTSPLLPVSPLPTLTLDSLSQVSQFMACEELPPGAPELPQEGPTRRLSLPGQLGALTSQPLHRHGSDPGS

CCCCC(C)C=C1CN2CCCC2C(C)(O)C1 (stereo not drawn) [PTX 251D, pumiliotoxin (PTX 251D)]
toxic effects (mice): pain, hyperactivity, convulsions and death
inhibitory effect on hERG (hERG): no inhibitory effect
inhibitory effect on Kv4.3/KChIP2 (Kv4.3/KChIP2): no inhibitory effect
inhibitory effect on Kir2.1 (Kir2.1): no inhibitory effect
inhibitory effect on Cav1.2 [1]: no inhibitory effect
inhibitory effect on NaV1.5 [2]: no inhibitory effect
